Reference: US20230049952A1, “METHODS AND COMPOUNDS FOR RESTORING MUTANT P53 FUNCTION” (PMV Pharmaceuticals, Inc., priority 2020, published 2023)
Where “and” joins values, the source holds several entries; their conditions need not be identical. Equal values may be shown once. Each block holds one molecule with its values, some of them ahead of it.

How the values were obtained:
CYP2C9 = CYP2C9 (Homo sapiens, UniProt P11712); experiment: in vitro; conditions: both, microsomes, pH 7.4, % of Control Enzyme Activity
CYP2C9, sequence (P11712 whole entry): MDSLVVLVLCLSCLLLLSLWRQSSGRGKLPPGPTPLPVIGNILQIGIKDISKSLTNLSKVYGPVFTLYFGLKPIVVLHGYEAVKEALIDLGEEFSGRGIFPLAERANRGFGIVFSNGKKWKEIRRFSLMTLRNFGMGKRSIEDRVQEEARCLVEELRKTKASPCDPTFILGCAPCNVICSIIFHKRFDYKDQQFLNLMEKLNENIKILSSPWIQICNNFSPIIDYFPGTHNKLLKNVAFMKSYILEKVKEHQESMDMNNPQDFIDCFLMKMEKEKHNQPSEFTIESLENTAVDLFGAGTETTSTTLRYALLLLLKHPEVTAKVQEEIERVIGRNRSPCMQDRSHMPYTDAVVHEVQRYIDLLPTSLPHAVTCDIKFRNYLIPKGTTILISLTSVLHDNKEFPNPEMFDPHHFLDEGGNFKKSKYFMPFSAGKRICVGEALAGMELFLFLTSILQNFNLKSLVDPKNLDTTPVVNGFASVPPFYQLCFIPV

CYP3A = CYP3A (Homo sapiens, UniProt P08684); experiment: in vitro; conditions: both, microsomes, pH 7.4, % of Control Enzyme Activity, HLM; for activity at 10 min, 0.037 µM: 0.0370 μM
CYP3A, sequence (P08684 2-503): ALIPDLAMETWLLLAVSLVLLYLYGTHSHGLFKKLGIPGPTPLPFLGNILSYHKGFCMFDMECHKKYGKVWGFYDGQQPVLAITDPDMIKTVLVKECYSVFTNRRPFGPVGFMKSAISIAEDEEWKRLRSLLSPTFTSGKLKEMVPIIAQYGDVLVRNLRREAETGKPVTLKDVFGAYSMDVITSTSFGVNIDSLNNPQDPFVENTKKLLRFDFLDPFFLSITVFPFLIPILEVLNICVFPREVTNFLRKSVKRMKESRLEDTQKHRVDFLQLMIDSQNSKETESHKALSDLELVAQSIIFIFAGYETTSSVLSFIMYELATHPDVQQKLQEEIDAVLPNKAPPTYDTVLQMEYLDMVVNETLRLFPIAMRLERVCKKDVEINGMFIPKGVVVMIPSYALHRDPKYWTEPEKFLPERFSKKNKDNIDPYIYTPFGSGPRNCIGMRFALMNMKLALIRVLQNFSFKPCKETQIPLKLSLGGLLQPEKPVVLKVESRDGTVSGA

[1] = Compound 2 and metabolites in rat plasma, 50 mg/kg PO QD×10; format: in vivo; conditions: for Average Concentration: rat plasma
Method: The proposed metabolite pathway was determined in vitro, and levels of potential metabolites were measured by LC/MS-MS in rat plasma remaining from the dose rising 10-day repeat dose study in rats. Six potential metabolites were quantified in the low (50 mg/kg) single dose rats. […] Rats were rotated between timepoints to form a composite PK curve. […] A 100 μL aliquot of the supernatant was transferred to the sample plate and mixed with 100 μL of water, then the plate was shaken at 800 rpm for 10 min. 0.5-2 μL supernatant was then injected into a Triple Quad 6500+ for LC-MS/MS analysis. The standard curve was generated at 1-3000 ng/mL for the compounds in rat plasma (EDTA-K2).
The male and female PK parameters were averaged together since there was <2-fold variation between the genders. All values deemed below the level of quantification (BLQ) were excluded from the PK parameters calculations.

[2] = Compound 2 50 mg/kg PO QD×10, 72 h post tenth dose
[3] = Compound 2 50 mg/kg PO QD×10, 96 h post tenth dose

SMILES: O=C(O)COc1ccc(C(=O)c2cccs2)c(Cl)c1Cl [Tienilic acid]
activity at 20 min, 0.123 µM (CYP2C9): 96.5%
activity at 20 min, 0.37 µM (CYP2C9): 80.1%
activity at 20 min, 3.33 µM (CYP2C9): 32.8%
activity at 20 min, 30 µM (CYP2C9): 8.14%
activity at 20 min, […] (CYP2C9): 101% and 57.4%
activity at 30 min, 0.123 µM (CYP2C9): 74.4%
activity at 30 min, 0.37 µM (CYP2C9): 36.8%
activity at 30 min, 3.33 µM (CYP2C9): 9.24%
activity at 30 min, 30 µM (CYP2C9): 3.84%

SMILES: CC(=O)N1CCN(c2ccc(OCC3COC(Cn4ccnc4)(c4ccc(Cl)cc4Cl)O3)cc2)CC1 (centres unmarked) [Ketoconazole, ketoconazole]
activity at 10 min, 0.0123 µM (CYP3A; Midazolam probe): 74.5%
activity at 10 min, 0.037 µM (CYP3A; Midazolam probe): 49.9%
activity at 10 min, 3 µM (CYP3A; Midazolam probe): 5.38%
activity at 10 min, 0.0123 µM (CYP3A; Testosterone probe): 58.4%
activity at 10 min, 0.037 µM (CYP3A; Testosterone probe): 32.9%
activity at 10 min, 0.333 µM (CYP3A; Testosterone probe, 0.333 μM): 6.75%
activity at 10 min, 1 µM (CYP3A; Testosterone probe, 1.00 μM): 3.54%
activity at 10 min, 3 µM (CYP3A; Testosterone probe): 1.56%

calculated concentration in rat plasma (individual rats) ([1]; Compound 2 50 mg/kg PO QD×10, 48 h post tenth dose, 50 mg/kg): BLQ (4×) and 1.01 ng/mL and 1.21 ng/mL
calculated concentration in rat plasma (individual rats) [1, 2]: BLQ
calculated concentration in rat plasma (individual rats) [1, 3]: BLQ
% of Parent ([1]; Day 1, of Compound 2 AUC0-24, rat, 50 mg/kg PO): 1.6%
AUC0-24 ([1]; Day 1, rat, Compound 2 50 mg/kg PO): 1254 ng·h/mL
% of Parent ([1]; Day 10, of Compound 2 AUC0-last, rat, 50 mg/kg PO QD×10): 0.9%
AUC0-last ([1]; Day 10, rat, Compound 2 50 mg/kg PO QD×10): 1021 ng·h/mL
Average Concentration ([1]; Compound 2 50 mg/kg PO QD×1, 1 h): 18.64 ng/mL
Average Concentration ([1]; Compound 2 50 mg/kg PO QD×1, 2 h): 58.20 ng/mL
Average Concentration ([1]; Compound 2 50 mg/kg PO QD×1, 4 h): 58.42 ng/mL
Average Concentration ([1]; Compound 2 50 mg/kg PO QD×1, 8 h): 95.78 ng/mL
Average Concentration ([1]; Compound 2 50 mg/kg PO QD×1, 24 h): 1.88 ng/mL
Average Concentration ([1]; Compound 2 50 mg/kg PO QD×10, 1 h post tenth dose): 18.52 ng/mL
Average Concentration ([1]; Compound 2 50 mg/kg PO QD×10, 2 h post tenth dose): 29.98 ng/mL
Average Concentration ([1]; Compound 2 50 mg/kg PO QD×10, 4 h post tenth dose): 46.33 ng/mL
Average Concentration ([1]; Compound 2 50 mg/kg PO QD×10, 8 h post tenth dose): 74.30 ng/mL
Average Concentration ([1]; Compound 2 50 mg/kg PO QD×10, 24 h post tenth dose): 5.44 ng/mL
Average Concentration ([1]; Compound 2 50 mg/kg PO QD×10, 48 h post tenth dose): 1.11 ng/mL
Average Concentration [1, 2]: BLQ
Average Concentration [1, 3]: BLQ
SMILES: CCn1c(C#CCNc2ccc(C)nc2)cc2cc(CNC3CCOCC3)ccc21 [Compound 8, 3-{1-Ethyl-5-[(tetrahydro-2H-pyran-4-ylamino)methyl]-1H-indol-2-yl}-1-(6-methyl-3-pyridylamino)-2-propyne]
calculated concentration in rat plasma (individual rats) ([1]; Compound 2 50 mg/kg PO QD×1, 1 h, 50 mg/kg): 28.5 ng/mL and 16.5 ng/mL and 13.4 ng/mL and 8.05 ng/mL and 22.8 ng/mL and 22.6 ng/mL
calculated concentration in rat plasma (individual rats) ([1]; Compound 2 50 mg/kg PO QD×1, 2 h, 50 mg/kg): 88.9 ng/mL and 36.3 ng/mL and 32.5 ng/mL and 78.0 ng/mL and 62.0 ng/mL and 51.5 ng/mL
calculated concentration in rat plasma (individual rats) ([1]; Compound 2 50 mg/kg PO QD×1, 4 h, 50 mg/kg): 84.8 ng/mL and 81.1 ng/mL and 34.9 ng/mL and 38.5 ng/mL and 52.9 ng/mL and 58.3 ng/mL
calculated concentration in rat plasma (individual rats) ([1]; Compound 2 50 mg/kg PO QD×1, 8 h, 50 mg/kg): 77.5 ng/mL and 46.5 ng/mL and 86.3 ng/mL and 203 ng/mL and 87.6 ng/mL and 73.8 ng/mL
calculated concentration in rat plasma (individual rats) ([1]; Compound 2 50 mg/kg PO QD×1, 24 h, 50 mg/kg): 2.71 ng/mL and 1.20 ng/mL and 1.36 ng/mL and 2.31 ng/mL and 2.43 ng/mL and 1.25 ng/mL
calculated concentration in rat plasma (individual rats) ([1]; Compound 2 50 mg/kg PO QD×10, 1 h post tenth dose, 50 mg/kg): 16.5 ng/mL and 6.52 ng/mL and 10.4 ng/mL and 6.59 ng/mL and 46.7 ng/mL and 24.4 ng/mL
calculated concentration in rat plasma (individual rats) ([1]; Compound 2 50 mg/kg PO QD×10, 2 h post tenth dose, 50 mg/kg): 14.6 ng/mL and 17.1 ng/mL and 27.6 ng/mL and 38.9 ng/mL and 57.5 ng/mL and 24.2 ng/mL
calculated concentration in rat plasma (individual rats) ([1]; Compound 2 50 mg/kg PO QD×10, 4 h post tenth dose, 50 mg/kg): 39.0 ng/mL and 39.4 ng/mL and 22.5 ng/mL and 92.1 ng/mL and 65.1 ng/mL and 19.9 ng/mL
calculated concentration in rat plasma (individual rats) ([1]; Compound 2 50 mg/kg PO QD×10, 8 h post tenth dose, 50 mg/kg): 29.5 ng/mL and 35.5 ng/mL and 57.2 ng/mL and 121 ng/mL and 135 ng/mL and 67.6 ng/mL
calculated concentration in rat plasma (individual rats) ([1]; Compound 2 50 mg/kg PO QD×10, 24 h post tenth dose, 50 mg/kg): 1.63 ng/mL and 2.61 ng/mL and 2.12 ng/mL and 10.6 ng/mL and 7.70 ng/mL and 8.00 ng/mL
